According to patent US20250144099A1, “INK4 TUMOR SUPPRESSOR PROTEINS MEDIATE RESISTANCE TO CDK4/6 KINASE INHIBITORS” (MEMORIAL SLOAN-KETTERING CANCER CENTER, priority 2021, published 2025):
“Also recorded” adds a separate entry of the source.

Tests used:
[1] = system: phosphorylation of Rb; experiment: Immunoblotting of Rb phosphorylation in cells; type: cell-based, human; details: FAT1 loss / CDK6-high CDK4/6i-resistant MCF7 cells
Protocol: Cell lysates were collected in RIPA buffer (Thermo Fisher Scientific) supplemented with protease and phosphatase inhibitors (Pierce). Protein concentration was quantified by using the BCA kit (Fisher Scientific). […] of protein lysates were loaded onto 4-12% SDS-PAGE gels (Invitrogen) for electrophoresis and transferred onto nitrocellular membranes. Blots were blocked with Intercept™ (TBS) Blocking Buffer (LI-COR Bioscience #927-60001) and incubated with primary antibody at 4° C. overnight. Secondary antibodies conjugated with fluorescence (LI-COR Bioscience #926-68071 and #926-32210) were incubated for 1 h at room temperature and blots were scanned by Odyssey Clx Imaging System from LI-COR Bioscience.

[2] = system: MCF-7 CDK6-high cells (FAT1 loss); experiment: Cell viability assay (Resazurin); type: cell-based, human; details: day 7
Protocol: (§1) Cell viability was measured by Resazurin (R&D Systems, Minneapolis, MN, USA) as described previously (51). Briefly, 1,500 cells were seeded in a 96-well plate and allowed to recover overnight. Cells were treated with drugs at day 0. Resazurin was added to the cells 4 hours prior to the measurements on day 3, day 5 and day 7. Fluorescent intensity was measured using a microplate reader (SpectraMax M5, Molecular Devices, Sunnyvale, CA, USA). IC50 was calculated by GraphPad Prism 7.0 using a sigmoidal regression model.

[3] = system: MCF-7 parental cells; experiment: Cell viability assay (Resazurin); type: cell-based, human; details: day 7
Protocol: as §1

[4] = system: MOLT4 cells; experiment: Global quantitative mass spectrometry proteomics; type: cell-based, human; details: 250 nM, 5 h
Protocol: Molt4 cells were treated with 250 nM of compounds BSJ-05-017 or BSJ-03-096 (singlicate) or DMSO control (biological triplicate) for 5 hours. Cells were harvested by centrifugation and prepared for mass spectrometry as described previously (28). Data were collected as reported (28). LC-MS data were analyzed using Proteome Discoverer 2.4 (Thermo Fisher Scientific), as previously described (28). Reporter ion intensities were normalized and scaled using in-house scripts in the R framework (63). Statistical analysis was carried out using the limma package within the R framework (64).

[5] = system: CDK6-high (FAT-1 loss) tumors; experiment: Pharmacodynamic study in tumor-bearing mice (immunoblotting of tumors); type: in vivo, NSG mice; details: 25 mg/kg i.p., 3 consecutive days, tumors collected at 6 h
Protocol: Pharmacodynamic study. NOD.Cg-Prkdc Il2rg<tm1Wjl>/SzJ (NSG) mice were obtained from the Jackson Laboratory (Stock #: 005557). Each mouse was injected with FAT1 loss cells subcutaneously 1 week after the implantation of estradiol pellets (25 mg). After the tumors reached 200 mm^3, mice were treated for 3 consecutive days with BSJ-05-017 at 25 mg/kg. Tumors were collected at 6 h. Lysates were prepared by homogenization in SDS-lysis buffer (˜1 ml/mg tissue) (50 mM Tris-HCl pH 7.4, 2% SDS) and boiled for 10 min, followed by brief sonication as described previously (65). Lysates were cleared by centrifugation at 14,000 g for 10 min and the supernatant was collected for western blotting.

[6] = system: CDK6-overexpressing xenografts; experiment: Efficacy study, cell-derived xenograft; type: in vivo, NSG mice; details: BSJ-05-017 50 mg/kg i.p., BSJ-03-096 50 mg/kg p.o., 25-35 days
Protocol: (§2) Efficacy study. NOD.Cg-Prkdc Il2rg<tm1Wjl>/SzJ (NSG) mice were obtained from the Jackson Laboratory (Stock #: 005557). Each mouse was injected with MCF7 parental, CDK6-ovexpressing or PTEN loss cells subcutaneously 1 week after the implantation of estradiol pellets (25 mg). […] Tumor volumes were recorded every 3-4 days. Mice were sacrificed if tumors reached 1000 mm^3 or at the end of the experiment. Tumors were collected and processed as described above.

[7] = system: MCF7 parental cell-derived xenografts; experiment: Efficacy study, cell-derived xenograft; type: in vivo, NSG mice; details: ribociclib 25 mg/kg p.o., BSJ-05-017 50 mg/kg i.p., BSJ-03-096 50 mg/kg p.o., 25-35 days
Protocol: as §2

[8] = system: shPTEN (PTEN loss) xenografts; experiment: Efficacy study, cell-derived xenograft; type: in vivo, NSG mice; details: BSJ-05-017 50 mg/kg i.p., BSJ-03-096 50 mg/kg p.o., 25-35 days
Protocol: as §2

[9] = system: patient-derived xenograft models; experiment: Patient-derived xenograft tumor growth; type: in vivo, mice; details: two patient-derived xenograft models; ribociclib at clinical equivalent dose
[10] = system: ~900 cell lines; experiment: PRISM cell line screening; type: cell-based; details: 8 pt. dose, 5 days
Protocol: Cell Lines. The current PRISM cell set consists of 931 cell lines representing more than 45 lineages including both adherent and suspension/hematopoietic cell lines. These cell lines largely overlap with and reflect the diversity of the Cancer Cell Line Encyclopedia (CCLE) cell lines (see https://portals.broadinstitute.org/ccle). Cell lines were grown in RPMI 10% FBS without phenol red for adherent lines and RPMI 20% FBS without phenol red for suspension lines. Parental cell lines were stably infected with a unique 24-nucleotide DNA barcode via lentiviral transduction and blasticidin selection. After selection, barcoded cell lines were expanded and QCed (mycoplasma contamination test, a SNP test for confirming cell line identity, and barcode ID confirmation). Passing barcoded lines were then pooled (20-25 cell lines per pool) based on doubling time and frozen in assay-ready vials.
PRISM Screening. […] These assay ready plates were then seeded with the thawed cell line pools. […]
Barcode Amplification and Detection. Each cell line's unique barcode is located at the end of the blasticidin resistance gene and gets expressed as mRNA. […] Finally, Luminex beads that recognize the specific barcode sequences in the cell set were hybridized to the PCR products and then detected using a Luminex scanner which reports signal as a median fluorescent intensity (MFI).

[11] = system: prostate cancer cell 22RV1; experiment: Colony formation assay; type: cell-based; details: 21 days treatment

Structure (SMILES): CC(=O)c1c(C)c2cnc(Nc3ccc(N4CCN(CCCCC(=O)N[C@H](C(=O)N5C[C@H](O)C[C@H]5C(=O)N[C@@H](C)c5ccc(-c6scnc6C)cc5)C(C)(C)C)CC4)cn3)nc2n(C2CCCC2)c1=O [BSJ-05-017, (2S,4R)-1-((S)-2-(5-(4-(6-((6-acetyl-8-cyclopentyl-5-methyl-7-oxo-7,8-dihydropyrido[2,3-d]pyrimidin-2-yl)amino)pyridin-3-yl)piperazin-1-yl)pentanamido)-3,3-dimethylbutanoyl)-4-hydroxy-N—((S)-1-(4-(4-methylthiazol-5-yl)phenyl)ethyl)pyrrolidine-2-carboxamide]
- inhibition of phosphorylation of Rb (and downstream E2F1/cyclin A2) [1]: effective inhibition of the phosphorylation of Rb
- inhibition of cell growth [2]: equal potency; also recorded: equipotent in suppressing proliferation
- inhibition of cell growth [3]: equal potency; also recorded: equipotent in suppressing proliferation
- selectivity in global proteomics [4]: highly selective for CDK4 and CDK6
- Rb1 phosphorylation and E2F1 expression in tumors [5]: significant suppression of Rb1 phosphorylation and E2F1 expression
- degradation of CDK4 and CDK6 in tumors [5]: near complete degradation of CDK4 and CDK6
- durable tumor inhibition (percent) [6]: −64.9%
- tumor response [7]: sensitive
- durable tumor inhibition (percent) [8]: ~47.4%
- inhibition of tumor growth [9]: effective in inhibiting tumor growth
- inhibition of cell growth across cell lines (AUC of cell viability) [10]: cells of other cancer types are also sensitive
- colony formation [11]: more sensitive to BSJ-05-017 than to palbociclib
